Source: PMC2014744, “A novel p38α MAPK inhibitor suppresses brain proinflammatory cytokine up-regulation and attenuates synaptic dysfunction and behavioral deficits in an Alzheimer's disease mouse model” (Journal of Neuroinflammation, 2007)
Converted amounts (≈) assume the structure as drawn. “Also recorded” adds a separate entry of the source.

Key:
p38α/SAPK2α = molecular target: T1, p38α/SAPK2α (Homo sapiens, UniProt Q16539); assay: In vitro p38α MAPK protein kinase assay (myelin basic protein phosphorylation, 32P-ATP); format: biochemical; details: Fig. 3B; for p38α MAPK inhibitory activity (in words): increasing concentrations of compound; for fold less active than 069A as p38α MAPK inhibitor: relative to 069A
T1 construct: purchased Millipore (Billerica, MA)
Description: Concentration-dependent inhibition of protein kinase activity was done essentially as previously described. Active p38α/SAPK2α enzyme was obtained from Millipore (Billerica, MA), and bovine myelin basic protein substrate was obtained from Sigma-Aldrich (St. Louis, MO). Enzyme activity assays were done in a final volume of 50 μl and each point was tested in duplicate. Assays were done by incubation with 0.33 mg/ml (18 μM) myelin basic protein, 100 μM ATP and γ-[^32P]ATP (specific activity > 300 cpm/pmol) in assay buffer (50 mM HEPES, pH 7.5, 5 mM MgCl2, 150 mM KCl, 15 mM NaCl, 1 mM DTT). Reactions were initiated by addition of the active p38α kinase at a final concentration of 2 μg/ml, and incubated for 10 min at 30°C. […] When compounds were tested for kinase inhibitory activity, 10X stock solutions of compounds were prepared in DMSO or water, and control samples contained the same final concentration of solvent as the samples containing compound. Data are expressed as percent of the maximal enzyme activity, where enzyme activity in the absence of compound is taken as 100%. IC50 values were calculated by a nonlinear regression data analysis using Microsoft Excel. Selectivity against pathway or structurally related protein kinases was done using purified kinases and standard in vitro assays described previously, and included use of the Millipore (Billerica, MA) kinase screening service at 20 μM final concentration of 069A and 90 μM final concentration of ATP.

[1] = Stability in human liver microsomes; format: in vitro ADME; details: 5 μM compound; for metabolic stability in human liver microsomes compared with 069A (in words): Fig. 4D, 10 or 30 min incubation
Description: Briefly, triplicate reaction mixtures contained 0.1 M potassium phosphate buffer (pH 7.4) and a final concentration of the following components: 1 – 1.6 mg/ml total microsomal protein, 5 μM test compound, 1.3 mM NADPH, 3.3 mM MgCl2, 0.4 U/ml glucose-6-phosphate dehydrogenase, and 3.3 mM glucose-6-phosphate in a total volume of 300 μl. Mixtures were incubated at 37°C for 10 or 30 minutes. […] HPLC was performed as described above with 0.1% (v/v) formic acid in water as reagent A and acetonitrile with 0.1% (v/v) formic acid in water as reagent B. Peak quantification was done based upon absorption measurements at 260 nm relative to a standard curve obtained by serial dilutions of compounds.

[2] = Oral bioavailability: compound in plasma after oral gavage; format: in vivo, C57Bl/6 mice; details: mice, 2.5 mg/kg oral gavage; earliest time point analyzed
Description: (§1) Analysis of oral bioavailability (concentration of compound in the blood as a function of time after oral administration) and brain uptake was done by a modification of that previously described. Briefly, 069A (2.5 mg/kg) was administered to C57Bl/6 mice by oral gavage in a 0.5% (w/v) carboxymethylcellulose suspension. At 5, 15, 30, 60, and 120 min after compound administration, blood was collected in heparinized tubes from anesthetized animals and plasma obtained by centrifugation. After perfusion, brains were harvested, homogenized in 0.1% formic acid and deproteinized with ice-cold acetonitrile. After centrifugation to remove precipitated protein, the brain homogenate supernatants were further diluted with 0.1% formic acid. The plasma samples were acidified by diluting with 0.1% formic acid (1:3, v:v). Solid phase extraction followed by HPLC analysis was used to quantify the amount of compound in the plasma and brain supernatants, with compound MW01-6-189WH used as an internal standard. Briefly, 30 mg cartridges (Oasis® HLB, Waters) were conditioned with 1 mL of acetonitrile and equilibrated with 1 mL of water. Acidified samples were loaded onto the cartridge followed by a 1 mL wash with 5% acetonitrile. Compound was eluted from the cartridge using 100% acetonitrile. The eluate was evaporated to dryness, reconstituted in 60% acetonitrile/0.1% formic acid/water and analyzed by HPLC. […]

[3] = tested on: C57Bl/6 mice infused ICV with human oligomeric Aβ1–42; assay: AD mouse model (ICV infusion of human oligomeric Aβ1–42): hippocampal protein levels by ELISA; format: in vivo; details: 2.5 mg/kg oral once daily for 2 weeks from day 21 after start of Aβ infusion; day 60
Description: (§2) The four-week intracerebroventricular (ICV) infusion of human oligomeric Aβ1-42 or Hepes/HDL vehicle into C57Bl/6 mice was done as previously described. Mice were administered by oral gavage either […] (2.5 mg/kg) or solvent control (DMSO) in a 0.5% (w/v) carboxymethylcellulose suspension. Compound administration began at day 21 after the start of Aβ infusion, and continued on a once daily administration schedule for 14 days. Beginning at day 50 after the start of Aβ infusion, the Y-maze test of spontaneous alternation was done once daily for 10 days to evaluate hippocampal-dependent spatial learning as described previously. At day 60, mice were anesthetized, perfused, and sacrificed as previously described. Hippocampal extract supernatants were prepared by dounce and sonication, followed by centrifugation as described previously. Levels of the proinflammatory cytokines IL-1β and TNFα in hippocampal supernatants were measured by ELISA (Biosource International) per the manufacturer's instructions. S100B and synaptophysin levels were measured by ELISA as previously described.

[4] = Aqueous solubility determination (log S); format: physicochemical; details: thermodynamic from solid, Milli-Q water, 22°C
Description: For aqueous solubility (log S) determination, compound 069A was weighed on a Sartorius AG (Goettingen, Germany) analytical balance, and Milli-Q water was added to create an oversaturated solution (suspension). Sample tubes were stirred for 24 hrs at ambient temperature (t = 22°C). 1 mL of the samples were centrifuged in a microfuge at 16,000 × g for 10 min, and 20 μL was subjected to reverse-phase HPLC analysis to determine the concentration of the compound (caq). The concentration of compound in the aqueous phase (caq) was determined by peak detection at 254 nm at the appropriate retention time relative to a standard curve obtained from serial dilutions of the compound. The log S was calculated as common logarithm (log10) of caq.

C57Bl/6 mice = assay: Liver toxicity screen (histology after two weeks of daily oral dosing); format: in vivo; details: 2.5 mg/kg oral gavage once daily for 2 weeks
Description: Screening for histological liver injury after chronic, therapeutic dose administration of compound was done as previously described. Briefly, C57Bl/6 mice were administered by oral gavage either […] (2.5 mg/kg) or solvent control (DMSO) in a 0.5% (w/v) carboxymethylcellulose suspension. Compound or vehicle administration was once daily for two weeks. Livers were then removed, fixed in 4% (v/v) paraformaldehyde, and paraffin-embedded for histology. To assess histological toxicity, 4 μm liver sections were stained with haematoxylin and eosin. Two independent observers blinded to the treatment groups performed microscopic assessment of the tissue for injury by using a semi-quantitative histological scoring system that considers architecture features (normal to extensive fibrosis), cellular features (normal to extensive edema and widespread necrosis), and degree of inflammatory infiltrate (normal to extensive infiltrate).

p38β = molecular target: T2, p38β (Homo sapiens, UniProt Q15759); assay: Millipore/Upstate kinase profiling: p38β; format: biochemical; details: 20 μM compound
T2 construct: purchased Millipore (KinaseProfiler kinase screening service)
Description: (§3) Enzyme activity assays were done in a final volume of 50 μl and each point was tested in duplicate. […] When compounds were tested for kinase inhibitory activity, 10X stock solutions of compounds were prepared in DMSO or water, and control samples contained the same final concentration of solvent as the samples containing compound. Data are expressed as percent of the maximal enzyme activity, where enzyme activity in the absence of compound is taken as 100%. IC50 values were calculated by a nonlinear regression data analysis using Microsoft Excel. Selectivity against pathway or structurally related protein kinases was done using purified kinases and standard in vitro assays described previously [69, 70], and included use of the Millipore (Billerica, MA) kinase screening service at 20 μM final concentration of 069A and 90 μM final concentration of ATP.

[5] = Brain uptake: compound in brain homogenate after oral gavage; format: in vivo, C57Bl/6 mice; details: mice, 2.5 mg/kg oral gavage; brain homogenate after perfusion
Description: as §1

[6] = Lipophilicity determination (log P), shake-flask; format: physicochemical; details: 1-octanol/water shake-flask, 25°C
Description: The partition coefficient was determined by the shake-flask method. The starting solution (0.3 mg/mL) of analyzed compound was prepared in presaturated 1-octanol (Sigma-Aldrich, St. Louis, MO). 1 mL of the octanol phase was agitated on a plate shaker with 10 mL of presaturated Milli-Q water for 2 hrs at 25°C. After partitioning, 1 mL of the aqueous phase was centrifuged in a microfuge for 10 min at 16,000 × g. 20 μL of the sample were analyzed with reversed-phase HPLC as described above to determine the concentration of the aqueous phase (caq). The log P is calculated according to the formula: log P = log10 [(0.3 – caq)/caq].

MKK7β = molecular target: T3, MKK7β (Homo sapiens, UniProt O14733); assay: Millipore/Upstate kinase profiling: MKK7β; format: biochemical; details: 20 μM compound; 90 μM ATP; activity without inhibitor = 100%
T3 construct: purchased Millipore (KinaseProfiler kinase screening service)
T3 sequence (O14733 1-419): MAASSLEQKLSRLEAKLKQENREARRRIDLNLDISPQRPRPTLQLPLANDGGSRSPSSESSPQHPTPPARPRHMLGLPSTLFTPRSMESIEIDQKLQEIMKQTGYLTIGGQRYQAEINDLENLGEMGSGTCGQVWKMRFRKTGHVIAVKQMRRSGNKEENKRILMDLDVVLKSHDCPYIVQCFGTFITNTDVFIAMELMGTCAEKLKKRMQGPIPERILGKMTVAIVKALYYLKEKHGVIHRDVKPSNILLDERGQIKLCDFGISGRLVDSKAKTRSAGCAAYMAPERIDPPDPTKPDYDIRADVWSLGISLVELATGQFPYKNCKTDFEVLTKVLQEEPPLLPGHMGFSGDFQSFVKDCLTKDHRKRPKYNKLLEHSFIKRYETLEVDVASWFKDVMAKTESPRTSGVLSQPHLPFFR

[7] = tested on: 44 other purified protein kinases; assay: Millipore kinase screen, summary for the non-p38 kinases; format: biochemical; details: 20 μM compound, Table 1
Description: as §3

[8] = tested on: C57Bl/6 mice infused ICV with human oligomeric Aβ1–42; assay: AD mouse model (ICV infusion of human oligomeric Aβ1–42): Y-maze spontaneous alternation; format: in vivo; details: 2.5 mg/kg oral once daily for 2 weeks from day 21; Y-maze days 50-60
Description: as §2

MKK4 = molecular target: T4, MKK4 (Mus musculus, UniProt P47809); assay: Millipore/Upstate kinase profiling: MKK4; format: biochemical; details: 20 μM compound; 90 μM ATP; activity without inhibitor = 100%
T4 construct: purchased Millipore (KinaseProfiler kinase screening service)
T4 sequence (P47809 1-397): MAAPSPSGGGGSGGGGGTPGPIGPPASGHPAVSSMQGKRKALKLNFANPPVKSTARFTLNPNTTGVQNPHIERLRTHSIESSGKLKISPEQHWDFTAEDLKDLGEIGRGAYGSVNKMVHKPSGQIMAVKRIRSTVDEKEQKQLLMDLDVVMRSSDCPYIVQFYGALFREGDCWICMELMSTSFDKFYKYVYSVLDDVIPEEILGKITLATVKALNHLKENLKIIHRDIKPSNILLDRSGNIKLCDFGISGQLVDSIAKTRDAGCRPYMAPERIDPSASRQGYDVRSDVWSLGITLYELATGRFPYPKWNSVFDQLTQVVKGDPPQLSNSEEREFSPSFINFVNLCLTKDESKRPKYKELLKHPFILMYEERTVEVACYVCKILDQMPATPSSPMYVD

p38α MAPK = details: background statement, no reference given; cited from earlier work
[9] = cited from earlier work

T1 sequence (Q16539 whole entry): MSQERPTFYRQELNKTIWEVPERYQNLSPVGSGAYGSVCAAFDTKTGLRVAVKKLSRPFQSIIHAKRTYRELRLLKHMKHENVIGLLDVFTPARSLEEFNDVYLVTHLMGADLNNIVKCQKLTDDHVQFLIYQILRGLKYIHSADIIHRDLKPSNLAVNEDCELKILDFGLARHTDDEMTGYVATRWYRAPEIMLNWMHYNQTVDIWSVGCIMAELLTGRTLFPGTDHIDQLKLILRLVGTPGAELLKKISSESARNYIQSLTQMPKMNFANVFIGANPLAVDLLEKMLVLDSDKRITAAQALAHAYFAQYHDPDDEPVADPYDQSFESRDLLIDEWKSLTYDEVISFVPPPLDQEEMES
T2 sequence (Q15759 whole entry): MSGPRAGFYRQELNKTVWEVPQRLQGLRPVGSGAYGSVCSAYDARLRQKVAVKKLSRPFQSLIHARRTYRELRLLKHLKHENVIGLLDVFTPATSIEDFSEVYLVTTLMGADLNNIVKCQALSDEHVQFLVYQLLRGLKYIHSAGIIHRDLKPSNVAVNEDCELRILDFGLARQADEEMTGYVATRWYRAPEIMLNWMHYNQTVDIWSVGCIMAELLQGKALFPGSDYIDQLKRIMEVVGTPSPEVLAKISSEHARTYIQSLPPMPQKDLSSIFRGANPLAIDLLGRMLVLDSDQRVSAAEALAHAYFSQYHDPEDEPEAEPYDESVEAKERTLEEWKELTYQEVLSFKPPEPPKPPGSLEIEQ

c1ccc(-c2cc(-c3ccncc3)c(N3CCN(c4ncccn4)CC3)nn2)cc1 [MW01-6-189WH]
p38α MAPK inhibitory activity (in words) (p38α/SAPK2α): does not generate MAPK inhibitory activity | fold less active than 069A as p38α MAPK inhibitor (p38α/SAPK2α): > 100 fold

Cc1cc(-c2ccccc2)nnc1NCCN1CCOCC1 [Minaprine]
metabolic stability in human liver microsomes compared with 069A (in words) [1]: it is more stable than the structurally related, clinical CNS drug Minaprine

c1ccc(-c2nnc(N3CCN(c4ncccn4)CC3)cc2-c2cccnc2)cc1 [MW01-4-119SRM, 3-phenyl-4-(pyridin-3-yl)-6-(4-(pyrimidin-2-yl)piperazin-1-yl)pyridazine]
p38α MAPK inhibitory activity (in words) (p38α/SAPK2α): major loss of activity | fold less active than 069A as p38α MAPK inhibitor (p38α/SAPK2α): > 100 fold

c1ccc(-c2nnc(N3CCN(c4ncccn4)CC3)cc2-c2ccncc2)cc1 [MW01-2-069A-SRM]
time at which compound is detected in plasma after oral administration [2]: ≤ 5 min | Aβ-induced loss of synaptophysin in hippocampal extracts [3]: attenuates this loss of synaptophysin | Aβ-induced overproduction of IL-1β in hippocampal extracts [3]: significantly reduced | Aβ-induced overproduction of S100B in hippocampal extracts [3]: significantly reduced | Aβ-induced overproduction of TNFα in hippocampal extracts [3]: significantly reduced | solubility at 24 h [4]: 9.54 µg/mL (≈ 24.1 µM) | compound remaining after incubation with human liver microsomes ([1]; 10 min incubation, 37°C): ~ 70% | adverse clinical effects during treatment (C57Bl/6 mice): no adverse clinical effects | histological liver injury (C57Bl/6 mice; compared with vehicle, 2.5 mg/kg): did not induce any histological indices of liver tissue injury; also recorded: no significant liver toxicity | % kinase activity (p38β) (p38β; 90 μM ATP, activity without inhibitor = 100%): 30% | inhibition of p38β (in words) (p38β; Millipore screen): partial inhibition | time at which compound appears in brain after oral administration [5]: ≤ 5 min | time of peak brain concentration after oral administration [5]: 5 to 15 min | logP at 2 h [6]: 3.18 | % kinase activity (MKK7β) (MKK7β): 103% | inhibition of 44 other purified protein kinases (in words) [7]: little or no inhibition | Aβ-induced Y-maze behavioral deficit [8]: ameliorates the Y-maze behavioral deficit | % kinase activity (MKK4) (MKK4): 117%

c1ccc(-c2ccc(N3CCN(c4ncccn4)CC3)nn2)cc1 [MW01-3-183WH, 3-phenyl-6-(4-(pyrimidin-2-yl)piperazin-1-yl)pyridazine]
p38α MAPK inhibitory activity (in words) (p38α/SAPK2α): lacks inhibitory activity | fold less active than 069A as p38α MAPK inhibitor (p38α/SAPK2α): > 100 fold

Cc1cc(-c2ccccc2)nnc1N1CCN(c2ncccn2)CC1 [Minozac]
p38α MAPK inhibition (in words) (p38α MAPK): not an inhibitor | metabolic stability in human liver microsomes compared with 069A (in words) [1]: 069A is not as metabolically stable as Minozac | blood-brain barrier penetrance [9]: good blood-brain barrier penetrance
